Where a SMILES comes first, the peptide text is derived from it. [ ]: non-standard residue; d: D form. The star is where a group is joined. ξ: configuration not given here. Cbz = O=C(OCc1ccccc1)*; ξP = O=C(O)C1CCCN1
What was measured:
[1] = Solubility (physico-chemical properties); assay type: physicochemical; details: for Solubility: Table 3
[2] = molecular target: T1, Flavobacterium meningosepticum PED (Elizabethkingia meningoseptica, UniProt P27028); assay: Prolyl endopeptidase inhibition assay (Flavobacterium enzyme, Z-Gly-Pro-pNA substrate); assay type: biochemical; details: pre-incubated 30 minutes at 30° C., pH 7.0
T1 construct: purchased Seikagaku Kogyo Co. Ltd
Protocol: (§1) Two enzymes were used: Flavobacterial enzyme for the screening and the isolation study and partially purified rabbit brain enzyme for in vitro evaluation. Ten μl of Flavobacterium meningosepticum PED,^10, 11 (Seikagaku Kogyo Co. Ltd., 0.5 unit/ml in 50 mM phosphate buffer, pH 7.0) or rabbit brain PED partially purified from the whole brain homogenate^12, 13.5 μl of a test sample and 86.5 μl of 100 mM phosphate buffer (pH 7.0) were mixed in a well of a 96-well microplate and pre-incubated for about 30 minutes at about 30° C. The reaction was started by addition of 25 μl of 2 mM carbobenzyloxyglycyl-prolyl-p-nitroanilide (Z-Gly-Pro-pNA) in 40% dioxane-100 mM phosphate buffer, pH 7.0. After about 5 minute-incubation at about 30° C., the amount of released p-nitroaniline was determined colorimetrically with a microplate autoreader (Titertek Multiskan® MMC) at 414 nm. For control, the reaction buffer was added to the reaction mixture instead of the test sample. The percentage of inhibition was calculated by the following equation: [formula]

rabbit brain PED = molecular target: T2, rabbit brain PED (Oryctolagus cuniculus, UniProt A0A5F9CCV6); assay: Prolyl endopeptidase inhibition assay (partially purified rabbit brain enzyme, Z-Gly-Pro-pNA substrate); assay type: biochemical; details: pre-incubated 30 minutes at 30° C., pH 7.0
T2 construct: rabbit brain PED partially purified from the whole brain homogenate; from tissue; host or cells: rabbit whole brain homogenate
Protocol: as §1

T2 sequence (A0A5F9CCV6 1-707): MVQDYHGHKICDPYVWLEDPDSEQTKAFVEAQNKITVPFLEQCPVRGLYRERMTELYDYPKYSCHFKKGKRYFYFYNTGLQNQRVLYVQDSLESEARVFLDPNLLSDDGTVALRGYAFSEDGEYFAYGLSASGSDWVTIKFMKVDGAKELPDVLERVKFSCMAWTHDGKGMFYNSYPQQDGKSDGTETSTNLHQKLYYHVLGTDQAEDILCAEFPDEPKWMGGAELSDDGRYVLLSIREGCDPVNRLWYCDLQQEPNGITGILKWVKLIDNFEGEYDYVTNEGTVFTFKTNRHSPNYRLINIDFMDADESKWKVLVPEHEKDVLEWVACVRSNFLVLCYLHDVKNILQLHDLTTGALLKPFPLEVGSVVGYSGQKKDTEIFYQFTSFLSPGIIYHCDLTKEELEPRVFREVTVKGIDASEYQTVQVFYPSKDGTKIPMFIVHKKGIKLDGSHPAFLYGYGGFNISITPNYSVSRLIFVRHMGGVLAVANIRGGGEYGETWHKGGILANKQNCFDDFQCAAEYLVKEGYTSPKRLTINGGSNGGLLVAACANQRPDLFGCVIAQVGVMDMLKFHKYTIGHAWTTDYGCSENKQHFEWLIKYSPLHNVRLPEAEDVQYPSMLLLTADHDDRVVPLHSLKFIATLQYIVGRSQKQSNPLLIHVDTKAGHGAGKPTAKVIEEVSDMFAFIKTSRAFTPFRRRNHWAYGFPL
T1 sequence (P27028 21-705): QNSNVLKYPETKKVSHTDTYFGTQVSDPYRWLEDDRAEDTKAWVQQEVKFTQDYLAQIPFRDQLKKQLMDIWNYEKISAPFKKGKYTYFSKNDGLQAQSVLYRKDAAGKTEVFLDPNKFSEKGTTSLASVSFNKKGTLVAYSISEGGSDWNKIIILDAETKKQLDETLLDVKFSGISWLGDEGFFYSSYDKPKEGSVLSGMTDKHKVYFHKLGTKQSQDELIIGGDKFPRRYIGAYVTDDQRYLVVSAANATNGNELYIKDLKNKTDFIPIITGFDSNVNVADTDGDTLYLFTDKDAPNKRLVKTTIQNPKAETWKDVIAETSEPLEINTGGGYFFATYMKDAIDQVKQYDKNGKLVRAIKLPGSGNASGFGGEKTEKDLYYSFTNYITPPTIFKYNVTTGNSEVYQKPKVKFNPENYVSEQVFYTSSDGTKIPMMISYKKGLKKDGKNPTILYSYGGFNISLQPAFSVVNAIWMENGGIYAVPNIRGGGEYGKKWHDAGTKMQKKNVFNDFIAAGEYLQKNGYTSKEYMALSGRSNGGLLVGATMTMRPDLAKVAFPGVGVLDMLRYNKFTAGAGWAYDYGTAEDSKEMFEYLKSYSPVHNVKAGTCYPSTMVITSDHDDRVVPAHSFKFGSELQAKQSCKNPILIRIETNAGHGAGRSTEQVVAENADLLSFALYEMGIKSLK

Solubility [1] | Solubility in dimethyl sulfoxide [1] | Solubility in other organic solvents and water [1] | PED inhibitory activity IC50, Flavobacterium [2] | PED inhibitory activity IC50, Rabbit brain (rabbit brain PED) | SMILES
Soluble in DMSO | soluble | practically insoluble | 3.7 ng/mL | 85 ng/mL | CC(C)CC/C=C/C(=O)NC1CCCNC(=O)C(CC(C)C)NC(=O)C(=O)C(C)NC1=O (stereo not drawn) [BU-4164E A]
 |  |  | 3.6 ng/mL | 16 ng/mL | CC(C)[C@H](NC(=O)OCc1ccccc1)C(=O)N1CCCC1C=O (stereo partly drawn) [Z-Val-prolinal, reference compound] (Cbz-Val-[ξP]-aldehyde)
Soluble in DMSO | soluble | practically insoluble | 2.1 ng/mL | 31 ng/mL | CCC(C)CC/C=C/C(=O)NC1CCCNC(=O)C(CC(C)C)NC(=O)C(=O)C(C)NC1=O (stereo not drawn) [BU-4164E B]
